{"source": "patent US20070122456A1", "about": "“Nicotine and Cocoa Powder Compositions” (priority 2001, published 2007)", "origin": "cited, not measured here", "conditions": "intravenous infusion; smokers and non-smokers similarly", "data": [{"compound": "CN1CCCC1c1cccnc1", "note": "(stereo not shown) [nicotine]", "values": [{"measurement": "increase of resting metabolic rate", "result": 6.5, "unit": "%"}]}]}
